The source of these data is US20030109490A1, “Composite stimulating iNOS enzyme which induce immuno-reactant nitric oxide synthesis and process for preparing the same” (priority 2001, published 2003).

In experiment [1] the test system is Macrophage RAW264.7. As to the kind of experiment: NO production by macrophage RAW264.7 (microplate assay, griess reagent). Type of experiment: cell-based. The following applies: TAXOL 10 μg/ml. On the technique in general: Griess reagent forms a coloured azo dye with nitrite.
Protocol: The production of NO was investigated as the following experiment
Macrophage RAW264.7(ATCC) was cultivated in RPMI-1640 medium (RPMI-1640 GibcoBRL 23400-021) 1.62%, sodium hydrogen carbonate 0.2%, penicillin and streptomycin 1%) supplemented with 10% fetal bovine serum (GibcoBRL 26140-079, FBS). Cell was incubated at 37° C., 5% CO2, and 95% of humidified air (CO2 incubator).
The production of NO was determined by employing microplate assay and the production of nitrate (NO3^−) which is an oxidized product of NO was also determined Macrophage RAW264.7(3×10^5 cells/ml) was grown in Dulbecco's modified eagle's medium supplemented with 100 U/ml penicillin, 100 μg/ml streptomycin, 10% FBS, 6 g/L HEPES, 3.7 g/L sodium hydrogen carbonate. Cell was stimulated against various control groups. Medium itself, rIFN-γ+the composite of the present invention, rIFN-γ+the composite of the present invention+LPS were stimulated to measure the production of nitrate (NO3^−) with time. After macrophage was cultured with INFγ 10 U/ml for 6 hours, the cell was incubated with each of the composite of the present invention (1 μg/ml), LPS(10 μg/ml), and the composite of the present invention (1 μg/ml)+LPS(10 μg/ml) to induce the production of nitrate (NO3^−).
The medium was centrifuged (1000 ppm, 10 minutes) and 100 μl of the culture supernatant was reacted with 100 μl of griess reagent (37.5 mM sulphanilic acid, 12.5 mM N-(1-naphthyl) ethylenediamine dihydrochloride, 6.5 mM hydrogen chloride) at room temperature for 10 minutes. Absorbance was measured at 540 nm using spectrophotometer. After correlation coefficient between concentration of NO3^− and absorbance was determined using nitric acid salts having concentration of 0 to 5 μM, the concentration of NO3^−-produced from macrophage RAW264.7 was calculated.
A short description of experiment [2]: anti-oxidative activity calculated as UV blocking value. Type of experiment: physicochemical. The note with it: 528 nm. How it is done: The anti-oxidative activity of the composite of this invention was measured at the wavelength of 528 nm using an UV-visible spectrometer (Cary, Virian Co., USA).
The test system of experiment [3] is Macrophage RAW 264.7. Kind of experiment: TNF-α secretion of macrophage RAW 264.7 (ELISA). The following applies: rIFN-γ alone, no LPS, no composite, 28 hrs. Format: cell-based. Background: ELISA stands for enzyme-linked immunosorbent assay.
Protocol: Macrophage RAW 264.7 (3×10^5 cells/well) was cultivated in RPMI-1640 medium supplemented with each of rIFN-γ, composite of this invention, and rIFN-γ+LPS, and rIFN-γ+composite of this invention for 28 hrs.
The secretion amount of TNF-α in the aforementioned cell was measured at a wavelength of 405 nm using ELISA method. Prior to analysis, several drops of 0.05% PBS (phosphate-buffered saline) was added to Tween 20 for its washing. All specimens for analysis was cultivated at 37° C. for 2 hrs. Recombinant murine TNF-α, so diluted, was used as a standard solution. An assay plate was exposed to (containing biotylate murine TNF-α, avidine peroxide, 30% H2O2), a substrate solution of ABTS (Azinobis(3-ethylbenzothiazoline-6-sulfonic acid).

`CC(=O)O[C@H]1C(=O)[C@@]2(C)[C@H]([C@H](OC(=O)c3ccccc3)[C@]3(O)C[C@H](OC(=O)[C@H](O)[C@@H](NC(=O)c4ccccc4)c4ccccc4)C(C)=C1C3(C)C)[C@]1(OC(C)=O)CO[C@@H]1C[C@@H]2O` [TAXOL ®]: the NO in experiment [1] (rIFN-γ added, no LPS, 0 h) is less than 4.0 µM; in experiment [1] (rIFN-γ added, no LPS, 12 h) it was 30.56 ± 3.2 µM; in experiment [1] (rIFN-γ and LPS added, 24 h), 45.1 ± 1.2 µM.
On to `O=C1O[C@H]([C@@H](O)CO)C(O)=C1O` [Vitamin C], for which the “anti-oxidative activity (UV blocking value)” value was 21.23% in experiment [2] (0.1% solution), 28.51% in experiment [2] (0.5% solution), 47.83% in experiment [2] (1% solution) and 58.28% in experiment [2] (2% solution).

B1: rIFN-γ: recombinant IFN-γ used to stimulate macrophage RAW264.7 (protein, UniProt P01580 23-155, looked up)
Interferon gamma: HGTVIESLESLNNYFNSSGIDVEEKSLFLDIWRNWQKDGDMKILQSQIISFYLRLFEVLKDNQAISNNISVIESHLITTFFSNSKAKKDAFMSIAKFEVNNPQVQRQAFNELIRVVHQLLPESSLRKRKRSRC
For B1, in experiment [3], the TNF-a is 0.76 ± 0.02 ng/mL.
